Measurements reported in patent US9422240B2, “Partially saturated nitrogen-containing heterocyclic compound” (TAISHO PHARMACEUTICAL CO., LTD, priority 2012, dated 2016).

Key:
human PHD2 [1] = target: T1, human PHD2 (Homo sapiens (Human), UniProt Q9GZT9); experiment: Test 1: human PHD2 inhibitory activity, [14C]-2-oxoglutarate to [14C]-succinic acid radiometric assay with HIF-1α peptide; format: biochemical; settings: test compound's concentration 1 μM; Test 1, [14C]-2-oxoglutarate radiometric assay; read-out: Percent inhibition (% at 1 μM)
T1 sequence (Q9GZT9 whole entry): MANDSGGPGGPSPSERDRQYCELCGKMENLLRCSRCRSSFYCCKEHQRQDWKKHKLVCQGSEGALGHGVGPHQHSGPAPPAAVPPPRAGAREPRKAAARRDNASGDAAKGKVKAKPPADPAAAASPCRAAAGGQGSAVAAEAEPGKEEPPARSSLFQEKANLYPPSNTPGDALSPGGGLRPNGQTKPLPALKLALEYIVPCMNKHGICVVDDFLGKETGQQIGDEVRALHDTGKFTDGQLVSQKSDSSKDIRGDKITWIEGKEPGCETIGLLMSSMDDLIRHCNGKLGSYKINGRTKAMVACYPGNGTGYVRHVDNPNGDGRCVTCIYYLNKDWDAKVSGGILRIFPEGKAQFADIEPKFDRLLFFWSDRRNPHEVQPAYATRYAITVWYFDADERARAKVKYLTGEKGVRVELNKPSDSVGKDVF
Procedure: (1) Expression and Preparation of Human PHD2
Human PHD2 was expressed in insect cells (HighFive cells). A registered sequence of human PHD2 (NM_022051) was introduced into the pFastBacl vector (Invitrogen), and the sequence was verified. The vector was introduced into Sf9 insect cells (Invitrogen) to acquire human PHD2 baculovirus. HighFive insect cells (Invitrogen) were infected with this recombinant virus and cultured at 27° C. for 72 hours; thereafter, a cell lysis solution containing various protease inhibitors was added and the cells were disrupted to form a suspension. The suspension of disrupted cells was centrifuged at 4° C. and 100,000×g for 30 minutes and the supernatant was recovered as a cell lysate.
(2) Measurement of Human PHD2 Inhibitory Activity
The activity of human PHD2 enzyme was measured with a substrate which is a 19-residue partial peptide based on the sequence of HIF-1α. Specifically, the conversion of 2-oxoglutarate to succinic acid which would occur simultaneously with the hydroxylation of a proline residue in the peptide with the PHD2 enzyme was utilized. To be more specific, [^14C]-2-oxogiutarate was added to the reaction system to initiate an enzymatic reaction and the [^14C]-2-oxoglutarate remaining after the reaction was bound to 2,4-dinitrophenylhydrazine (DNPH), with the resulting precipitate being removed by passage through a filter. Subsequently, radiation counting was conducted on the resulting [^14C]-succinic acid.
A test compound, HIF-1αpeptide and [^14C]-2-oxoglutarate were preliminarily added onto 96-well plates and reaction was initiated by adding a human PHD2 enzyme solution (4 μg/well). After 15-min incubation at 37° C., a DNPH-containing quench solution was added and the mixture was allowed to stand at room temperature for 30 minutes. Thereafter, an excess of non-radiolabelled 2-oxoglutarate was added and the mixture was allowed to stand at room temperature for 60 minutes. The resulting precipitate was removed by passage through a filter and the radiation count on the [^14C]-succinic acid was quantified (with MicroBeta). Radiation counting was conducted for each well and the human PHD2 inhibitory activity of each test compound was calculated on the basis of the values for the substrate-free group and the test compound-free group.

human PHD2 [2] = target: T1, human PHD2; experiment: Test 2: human PHD2 inhibitory activity, fluorescence polarization assay of HIF-1α peptide proline hydroxylation; format: biochemical; settings: for inhibition at 1 µM: test compound's concentration 1 μM, Test 2, fluorescence polarization assay, read-out: Percent inhibition (% at 1 μM)
Procedure, shortened: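 A 19-mer HIF-1α peptide served as substrate, with the reaction started by 40 ng/well human PHD2 (cell lysate of NM_022051-transfected cells) and run 20 min at 30° C. before EDTA stop. Hydroxylated product bound anti-HIF-OH antibody, read by fluorescence polarization versus no-compound control.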

inhibition at 1 µM (human PHD2 [1]) | inhibition at 1 µM (human PHD2 [2]) | IC50 (human PHD2 [2]; human PHD2, fluorescence polarization assay, 20-min incubation at 30° C.) | Structure (SMILES)
79% | 91% |  | O=C(O)CNC(=O)C1=C(O)CCN(c2ccc(Oc3ccccc3)cc2)C1=O [Ex. 1-40]
89% | 90% |  | O=C(O)CNC(=O)C1=C(O)CCN(Cc2cnc(-c3ccccc3)nc2)C1=O [Ex. 1-41]
90% | 94% |  | O=C(O)CNC(=O)C1=C(O)CCN(Cc2ccc(Cc3ccccc3)cc2)C1=O [Ex. 1-42]
78% | 84% |  | O=C(O)CNC(=O)C1=C(O)CCN(Cc2ccc3c(c2)CCCC3)C1=O [Ex. 1-46]
58% | 73% |  | O=C(O)CNC(=O)C1=C(O)[C@@H]2CCCC[C@@H]2N(Cc2ccc(-c3ccccc3)cc2)C1=O [Ex. 1-51]
58% | 78% |  | O=C(O)CNC(=O)C1=C(O)[C@@H]2CCCCC2N(Cc2ccc(-c3ccccc3)cc2)C1=O (stereo partly shown) [Ex. 1-52]
75% | 79% |  | CC(C)(C)c1ccc(CN2CCC(O)=C(C(=O)NCC(=O)O)C2=O)cc1 [Ex. 1-55]
41% | 54% |  | O=C(O)CNC(=O)C1=C(O)CCN(Cc2cc(C(F)(F)F)cc(C(F)(F)F)c2)C1=O [Ex. 1-59]
58% | 71% |  | COc1cccc(CN2CCC(O)=C(C(=O)NCC(=O)O)C2=O)c1 [Ex. 1-61]
43% | 69% |  | O=C(O)CNC(=O)C1=C(O)CC2(CCCCC2)N(Cc2ccc(C(F)(F)F)cc2)C1=O [Ex. 1-63]
80% | 81% |  | O=C(O)CNC(=O)C1=C(O)C2(CCOCC2)CN(Cc2ccc(C(F)(F)F)cc2)C1=O [Ex. 1-64]
80% | 77% |  | O=C(O)CNC(=O)C1=C(O)CCN(Cc2cccc(Cl)c2)C1=O [Ex. 1-66]
67% | 66% |  | O=C(O)CNC(=O)C1=C(O)CCN(Cc2cccc(OC(F)(F)F)c2)C1=O [Ex. 1-68]
81% | 85% |  | CCOc1ccc(CN2CCC(O)=C(C(=O)NCC(=O)O)C2=O)cc1 [Ex. 1-71]
99% | 90% |  | O=C(O)CNC(=O)C1=C(O)CCN(Cc2ccc(-c3ccccc3)nc2)C1=O [Ex. 1-73]
40% | 79% |  | O=C(O)CNC(=O)C1=C(O)CC(CCc2ccccc2)N(Cc2ccc(-c3ccccc3)cc2)C1=O (stereo not shown) [Ex. 1-76]
74% | 85% |  | CC1CC(O)=C(C(=O)NCC(=O)O)C(=O)N1Cc1ccc(-c2ccccn2)cc1 (stereo not shown) [Ex. 1-77]
70% | 78% |  | CC1CC(O)=C(C(=O)NCC(=O)O)C(=O)N1Cc1ccc(C(F)(F)F)cc1 (stereo not shown) [Ex. 1-78]
64% | 71% |  | Cc1ccc(CN2C(=O)C(C(=O)NCC(=O)O)=C(O)CC2C)cc1 (stereo not shown) [Ex. 1-79]
76% | 88% |  | CC1CC(O)=C(C(=O)NCC(=O)O)C(=O)N1CC1CCC(c2ccccc2)CC1 (stereo not shown) [Ex. 1-80]
72% | 64% |  | O=C(O)CNC(=O)C1=C(O)CC(C(F)(F)F)N(Cc2ccc(-c3ccccc3)cc2)C1=O (stereo not shown) [Ex. 1-81]
51% | 77% |  | O=C(O)CNC(=O)C1=C(O)C2(CCCCC2)CN(Cc2ccc(C(F)(F)F)cc2)C1=O [Ex. 1-82]
61% | 65% |  | CC1(C)CC(O)=C(C(=O)NCC(=O)O)C(=O)N1Cc1ccc(C(F)(F)F)cc1 [Ex. 1-85]
48% | 71% |  | Cc1ccc(CN2CC3(CCCCC3)C(O)=C(C(=O)NCC(=O)O)C2=O)cc1 [Ex. 1-86]
46% | 86% |  | CC(C)(C)c1ccc(-c2ccc(CN3C(=O)C(C(=O)NCC(=O)O)=C(O)CC34CCOCC4)cc2)cc1 [Ex. 1-87]
44% | 55% |  | Cc1ccc(CN2C(=O)C(C(=O)NCC(=O)O)=C(O)CC2(C)C)cc1 [Ex. 1-88]

More lines, now with the values behind:

Structure (SMILES) | inhibition at 1 µM (human PHD2 [1]) | inhibition at 1 µM (human PHD2 [2]) | IC50 (human PHD2 [2]; human PHD2, fluorescence polarization assay, 20-min incubation at 30° C.)
O=C(O)CNC(=O)C1=C(O)CCN(c2ccccc2)C1=O [Ex. 1-38] | 48% | 66% | 
O=C(O)CNC(=O)C1=C(O)CCN(c2cccc(Oc3ccccc3)c2)C1=O [Ex. 1-39] | 76% | 86% | 
O=C(O)CNC(=O)C1=C(O)CCN(Cc2cnc(C3CCCCC3)nc2)C1=O [Ex. 1-43] | 74% | 79% | 
O=C(O)CNC(=O)C1=C(O)CCN(Cc2cnc(-c3ccccc3)s2)C1=O [Ex. 1-44] | 87% | 91% | 
O=C(O)CNC(=O)C1=C(O)CCN(Cc2cc(-c3ccccc3)no2)C1=O [Ex. 1-45] | 82% | 88% | 
COc1ccc(CN2CCC(O)=C(C(=O)NCC(=O)O)C2=O)cc1 [Ex. 1-48] | 67% | 79% | 
O=C(O)CNC(=O)C1=C(O)CC(c2ccccc2)N(Cc2ccccc2)C1=O (stereo not shown) [Ex. 1-49] | 55% | 55% | 
O=C(O)CNC(=O)C1=C(O)CC(c2ccccc2)N(Cc2ccc(-c3ccccc3)cc2)C1=O (stereo not shown) [Ex. 1-50] | 77% | 83% | 
CCc1ccc(CN2CCC(O)=C(C(=O)NCC(=O)O)C2=O)cc1 [Ex. 1-53] | 78% | 78% | 
O=C(O)CNC(=O)C1=C(O)CCN(Cc2ccc(C(F)(F)F)cc2C(F)(F)F)C1=O [Ex. 1-54] | 60% | 71% | 
O=C(O)CNC(=O)C1=C(O)C(c2ccccc2)CN(Cc2ccc(-c3ccccc3)cc2)C1=O (stereo not shown) [Ex. 1-57] | 58% | 83% | 
Cc1ccc(CN2CCC(O)=C(C(=O)NCC(=O)O)C2=O)c(C)c1 [Ex. 1-60] | 66% | 76% | 
COc1ccc(CN2CCC(O)=C(C(=O)NCC(=O)O)C2=O)c(C)c1 [Ex. 1-62] | 65% | 68% | 
CSc1ccc(CN2CCC(O)=C(C(=O)NCC(=O)O)C2=O)cc1 [Ex. 1-65] | 84% | 85% | 
O=C(O)CNC(=O)C1=C(O)CCN(Cc2ccc(Cl)c(Cl)c2)C1=O [Ex. 1-67] | 84% | 89% | 
O=C(O)CNC(=O)C1=C(O)CCN(Cc2ccc(Oc3ccccc3)nc2)C1=O [Ex. 1-72] | 98% | 89% | 94 nM
O=C(O)CNC(=O)C1=C(O)CCN(Cc2ccc(Cl)c(C(F)(F)F)c2)C1=O [Ex. 1-74] | 80% | 86% | 
O=C(O)CNC(=O)C1=C(O)CC(Cc2ccccc2)N(Cc2ccc(-c3ccccc3)cc2)C1=O (stereo not shown) [Ex. 1-75] | 54% | 84% | 
O=C(O)CNC(=O)C1=C(O)C2(CCC2)CN(Cc2ccc(C(F)(F)F)cc2)C1=O [Ex. 1-83] | 54% | 73% | 
Cc1ccc(CN2C(=O)C(C(=O)NCC(=O)O)=C(O)CC23CCCCC3)cc1 [Ex. 1-84] | 42% | 67% | 
Cc1ccc(CN2CC3(CCOCC3)C(O)=C(C(=O)NCC(=O)O)C2=O)cc1 [Ex. 1-89] | 69% | 72% | 
Cc1ccc(CN2CC3(CCC3)C(O)=C(C(=O)NCC(=O)O)C2=O)cc1 [Ex. 1-90] | 58% | 63% | 
